Numbered stars: 1 amine (or outer) side, 2 acyl side, 3 side chain; on linkers, the order of the positions; unused ones are H or OH. Bridge positions count the residues as written; N and C are the ends. Square brackets hold non-standard residues; d marks the D form. * marks the point of attachment. C20 diacid = O=C(O)CCCCCCCCCCCCCCCCCCC(=O)*; γGlu = O=C(O)[C@H](CCC(=O)[*:2])N[*:1]; Dap = NC[C@H](N)C(=O)O; CH2 = C([*:1])[*:2]

The test system of this assay is plasma cGMP. Kind of assay: In vivo monkey studies, plasma cGMP ELISA. Details: species or system male cynomolgus monkeys. Conditions: for Net cGMP (nM) Change from Baseline 0.083 h: 0.083 h postdose; for Net cGMP (nM) Change from Baseline 0.083 h / Net cGMP (nM) Change from Baseline 0.25 h / Net cGMP (nM) Change from Baseline 0.5 h / Net cGMP (nM) Change from Baseline 1 h / Net cGMP (nM) Change from Baseline 2 h / Net cGMP (nM) Change from Baseline 4 h / Net cGMP (nM) Change from Baseline 8 h / Net cGMP (nM) Change from Baseline 12 h / Net cGMP (nM) Change from Baseline 24 h / Net cGMP (nM) Change from Baseline 36 h / Net cGMP (nM) Change from Baseline 48 h / Net cGMP (nM) Change from Baseline 72 h / Net cGMP (nM) Change from Baseline 96 h / Net cGMP (nM) Change from Baseline 120 h / Net cGMP (nM) Change from Baseline 144 h / Net cGMP (nM) Change from Baseline 168 h: monkey plasma; for Net cGMP (nM) Change from Baseline 0.25 h: 0.25 h postdose; for Net cGMP (nM) Change from Baseline 0.5 h: 0.5 h postdose; for Net cGMP (nM) Change from Baseline 1 h: 1 h postdose; for Net cGMP (nM) Change from Baseline 2 h: 2 h postdose; for Net cGMP (nM) Change from Baseline 4 h: 4 h postdose; for Net cGMP (nM) Change from Baseline 8 h: 8 h postdose; for Net cGMP (nM) Change from Baseline 12 h: 12 h postdose; for Net cGMP (nM) Change from Baseline 24 h: 24 h postdose; for Net cGMP (nM) Change from Baseline 36 h: 36 h postdose; for Net cGMP (nM) Change from Baseline 48 h: 48 h postdose; for Net cGMP (nM) Change from Baseline 72 h: 72 h postdose; for Net cGMP (nM) Change from Baseline 96 h: 96 h postdose; for Net cGMP (nM) Change from Baseline 120 h: 120 h postdose; for Net cGMP (nM) Change from Baseline 144 h: 144 h postdose; for Net cGMP (nM) Change from Baseline 168 h: 168 h postdose; for net cGMP levels (result in words): monkeys, single SC dose, plasma. The procedure: In vivo monkey studies were conducted as described in detail below. Young adult-to-adult male cynomolgus monkeys were given a single dose subcutaneously (SC). Blood was collected predose and at various pre-determined timepoints throughout the study period. Aliquot of cynomolgus monkey plasma was received for cyclic cGMP (cGMP) measurement and stored at −80° C. prior to use.
Control plasma was made for determining the recovery rate of spike-in cGMP using Enzo cGMP complete ELISA kit (Enzo Life Sciences, Inc, Farmingdale, NY, cat no. ADI-901-164). Briefly, blood from male Sprague Dawley rats (Inotiv, Indianapolis, IN), about 7 months old, was collected in a BD Vacutainer EDTA tube (Becton Dickinson, Franklin Lakes, NJ, cat no. BD-367856) with volume of approximate 4 mL through retro orbital bleeding. Plasma was prepared by spinning the tube in an Eppendorf Refrigerated Centrifuge 5810R (Brinkman Instruments, Inc, Westbury, NY) at 3500 rpm (3000×g) for 10 min at 4° C. Plasma was collected as Positive Control plasma. Cyclic GMP (cGMP standard from Enzo cGMP complete ELISA kit) was added to the positive control plasma at a final concentration of additional 40 nM. Positive Control and Spiked-in Control plasma were aliquoted and stored at −80° C.
The cGMP content was measured using the Enzo cGMP complete ELISA kit following the manufacturer's directions with modifications as described below. The cGMP standards provided in the kit were diluted 1:3 ranging from 50 nM to 0.023 nM in 1× assay buffer that was diluted in water from 2× assay buffer provided in the kit. The cGMP standards ([…]) were transferred to a 96-well polypropylene plate (Thermo Scientific, cat no. 442587).
Plasma samples were thawed from −80° C. and diluted 1:20 in 1× assay buffer in the above plate with a final volume of 150 μL. Assay buffer was added (150 μL) for both a non-specific binding control (in the absence of cGMP antibody) and a maximum binding control (in the absence of competing cGMP) in duplicate wells. Positive Control and Spiked-in Control plasma were diluted 1:20 in 1× assay buffer with a final volume of 150 μL in duplicate wells of the above plate. All diluted plasma was mixed by pipetting up and down several times.
Acetylation reagent mix was prepared by adding 1-part of acetic anhydride into 2-parts of triethylamine provided in the kit and mixing well using Vortex (Scientific Industries, Inc, Bohemia, NY). All controls, standards, and plasma samples were acetylated by adding 15 μL of acetylation reagent mix into the plate, one column at a time, and shaking for 1 min on a Titer Plate Shaker (Lab-Line Instrument, Inc., Melrose Park, IL) at room temperature. The plate was shaken for an additional 1 min following the acetylation of the last column to ensure the reaction was completed.
Acetylated controls, standard and plasma samples were transferred (100 μL) to an ELISA plate (n=1). Then 50 μL of cGMP conjugate were added to each well followed by the addition of 50 μL cGMP antibody to each well except for two non-specific binding wells, in which 50 μL of 1× assay buffer were added. The plate was then sealed and shaken for 2 h at room temperature on the plate shaker. Following this incubation, the plate was washed five times using 200 μL of 1× wash buffer diluted in water from 5× wash buffer provided in the kit. Then, 200 μL of para-Nitrophenylphosphate (pNpp) were added to each well. The plate was sealed with a new plate sealer and shaken in dark for 1 h at room temperature on the plate shaker. Finally, 50 μL of stop solution were added to each well to stop the enzyme reaction. The plate was then read at 405 nm using SpectraMax Plus (Molecular Devices, San Jose, CA).
The mean absorbance at 405 nm (O.D. 405 nm) for the non-specific binding controls was subtracted from the O.D. 405 nm of all samples. The subtracted O.D. 405 nm of all samples were then normalized with the mean subtracted O.D. 405 nm of the maximum binding controls as B/B0%. […]

With `CC[C@H](C)[C@@H]1NC(=O)[C@H](CCCNC(=N)N)NC(=O)[C@H](CC(=O)O)NC(=O)[C@H]([C@@H](C)CC)NC(=O)[C@H](CCCNC(=N)N)NC(=O)[C@H](CCCCN)NC(=O)CNC(=O)[C@H](Cc2ccccc2)NC(=O)[C@@H](NC(=O)[C@H](CO)NC(=O)[C@H](CO)NC(=O)[C@H](CCCNC(=N)N)NC(=O)CCNC(=O)[C@H](CCCCN)NC(=O)[C@H](CCC(=O)O)NC(=O)COCCOCCNC(=O)COCCOCCNC(=O)COCCOCCNC(=O)COCCOCCNC(=O)COCCOCCNC(=O)COCCOCCNC(=O)CNC(=O)[C@H](CCCCN)NC(=O)[C@H](CCC(=O)O)NC(=O)[C@H](CCCCN)NC(=O)[C@H](CCC(=O)O)NC(=O)[C@H](CCCCN)NC(=O)[C@H](CCC(=O)O)NC(=O)CC[C@H](NC(=O)CCCCCCCCCCCCCCCCCCC(=O)O)C(=O)O)CSCSC[C@@H](C(=O)N2CCC[C@H]2C(=O)N[C@@H](CO)C(=O)N[C@@H](Cc2ccccc2)C(=O)N[C@@H](CCCNC(=N)N)C(=O)N[C@@H](Cc2c[nH]cn2)C(=O)NCC(=O)NCC(=O)N[C@@H](CCCCN)C(=O)N[C@@H](CO)C(=O)N[C@@H](CO)C(=O)NCC(=O)N[C@@H](C)C(=O)N2CCC[C@H]2C(=O)N2CCC[C@H]2C(=O)N2CCC[C@H]2C(=O)N[C@@H](CO)C(N)=O)NC(=O)CNC(=O)[C@H](CC(C)C)NC(=O)CNC(=O)[C@H](CO)NC(=O)[C@H](CCC(N)=O)NC(=O)[C@H](Cc2c[nH]cn2)NC(=O)CNC1=O` [Example 89], the “net cGMP levels (result in words)” value was “increased net cGMP levels”. Also, where the note is “dose 100 nmol/kg”, the “Net cGMP (nM) Change from Baseline 0.083 h” value stood at 6.83 nM, the “Net cGMP (nM) Change from Baseline 0.25 h” value came to 20.73 nM, the “Net cGMP (nM) Change from Baseline 0.5 h” value is reported as 33.07 nM and the “Net cGMP (nM) Change from Baseline 1 h” value is given as 35.04 nM. Under “dose 100 nmol/kg”, the “Net cGMP (nM) Change from Baseline 2 h” value came to 36.11 nM, the “Net cGMP (nM) Change from Baseline 4 h” value amounted to 42.86 nM, the “Net cGMP (nM) Change from Baseline 8 h” value turned out to be 36.71 nM and the “Net cGMP (nM) Change from Baseline 12 h” value amounted to 33.87 nM. Under “dose 100 nmol/kg”, the “Net cGMP (nM) Change from Baseline 24 h” value amounted to 30.9 nM, the “Net cGMP (nM) Change from Baseline 36 h” value stood at 24.59 nM, the “Net cGMP (nM) Change from Baseline 48 h” value was 16.29 nM and the “Net cGMP (nM) Change from Baseline 72 h” value was 15.56 nM. Besides, for the setting “dose 100 nmol/kg”, the “Net cGMP (nM) Change from Baseline 96 h” value is on record as 12.74 nM, the “Net cGMP (nM) Change from Baseline 120 h” value amounted to 18.95 nM, the “Net cGMP (nM) Change from Baseline 144 h” value worked out at 12.03 nM and the “Net cGMP (nM) Change from Baseline 168 h” value is reported as 8.03 nM.

“{C20 diacid-γGlu}-EKEKEKGEKPRSSCFG[Dap]RIDRIGHYSGLGCPSFRHGSPSSGAPPPS-NH2 (linker 14-30 via CH2) [Example 136]”: the “net cGMP levels (result in words)” value is “increased net cGMP levels”. For the same compound, for the setting “dose 50 nmol/kg”, the “Net cGMP (nM) Change from Baseline 0.083 h” value is 3.25 nM, the “Net cGMP (nM) Change from Baseline 0.25 h” value amounted to 12.48 nM, the “Net cGMP (nM) Change from Baseline 0.5 h” value was 20.78 nM and the “Net cGMP (nM) Change from Baseline 1 h” value came to 12.12 nM. For the same compound, for the setting “dose 50 nmol/kg”, the “Net cGMP (nM) Change from Baseline 2 h” value was determined as 9.42 nM, the “Net cGMP (nM) Change from Baseline 4 h” value is given as 8.76 nM, the “Net cGMP (nM) Change from Baseline 8 h” value worked out at 7.65 nM and the “Net cGMP (nM) Change from Baseline 12 h” value came out at 7.65 nM. In addition, under “dose 50 nmol/kg”, the “Net cGMP (nM) Change from Baseline 24 h” value was 11.83 nM, the “Net cGMP (nM) Change from Baseline 36 h” value was found to be 11.18 nM, the “Net cGMP (nM) Change from Baseline 48 h” value was found to be 5.65 nM and the “Net cGMP (nM) Change from Baseline 72 h” value was determined as 2.61 nM. Under “dose 50 nmol/kg”, the “Net cGMP (nM) Change from Baseline 96 h” value turned out to be 2.05 nM, the “Net cGMP (nM) Change from Baseline 120 h” value is given as 2.71 nM, the “Net cGMP (nM) Change from Baseline 144 h” value is 3.72 nM and the “Net cGMP (nM) Change from Baseline 168 h” value is given as 3.36 nM.

For the origin of these results see patent publication US20240174727A1, “LONG-ACTING NATRIURETIC PEPTIDES AND USES THEREOF” (Eli Lilly and Company, priority 2022, published 2024).
